For eight compounds, GI50 and TGI results are on record in PubChem BioAssay (NCI).

Test systems include SK-MEL-28 melanoma; 786-0 renal; SK-MEL-5 melanoma; MCF7 breast; MDA-MB-231 breast; UACC-62 melanoma; SN12C renal; OVCAR-4 ovarian; MDA-MB-435; HCT-116 colon.
Common to all, as to assay: NCI-60 cell line screen, 48 h

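Exposure lasted 48 hours, with cells grown in 96-well plates and compounds tested at five concentrations. The concentration for 50% growth inhibition is given as GI50. TGI denotes the concentration required for complete inhibition of growth.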

For the compound `CC[N+](CC)(CC)CCCn1c2c(c3ccccc3c1=O)C(=O)c1ccccc1-2`, the GI50 in the assay with SK-MEL-28 melanoma is 29.2 µM; in the assay with 786-0 renal, 7.35 µM; in the assay on SK-MEL-5 melanoma, 1.43 µM; in the assay with MCF7 breast, 2.89 µM; in the assay on MDA-MB-231 breast, 17.6 µM; in the assay on UACC-62 melanoma it was 9.31 µM. Moreover, the GI50 was 5.59 µM with SN12C renal, 55.3 µM in the assay on OVCAR-4 ovarian, 18.3 µM in the assay on MDA-MB-435 and 1.95 µM with HCT-116 colon. The TGI with SK-MEL-28 melanoma is greater than 100 µM; with 786-0 renal it was 32 µM; in the assay with SK-MEL-5 melanoma, 5.91 µM; in the assay with MCF7 breast it was 7.4 µM; in the assay with MDA-MB-231 breast, 84.2 µM; in the assay with UACC-62 melanoma it was 29.3 µM. In addition, the TGI in the assay with SN12C renal was greater than 100 µM; in the assay with OVCAR-4 ovarian it was greater than 100 µM; in the assay on MDA-MB-435, 62.6 µM; in the assay with HCT-116 colon it was 9.27 µM.

Consider `COc1cc2c(/C=C3/C(=O)Nc4ccccc43)c(Cl)n(Cc3ccccc3[N+](=O)[O-])c2cc1C`, for which the GI50 with SK-MEL-28 melanoma is 3.47 µM; with 786-0 renal it was 6.31 µM; in the assay on SK-MEL-5 melanoma, 5.02 µM; in the assay on MCF7 breast, 5.46 µM; with MDA-MB-231 breast, 3.85 µM; with UACC-62 melanoma it was 6.69 µM. Moreover, the GI50 in the assay on SN12C renal was 9.42 µM; in the assay on OVCAR-4 ovarian it was 4.18 µM; with MDA-MB-435, 3.39 µM; in the assay with HCT-116 colon, 2.71 µM. The TGI with SK-MEL-28 melanoma was 12.4 µM; with 786-0 renal, 22.5 µM; in the assay on SK-MEL-5 melanoma, 19.6 µM; with MCF7 breast it was greater than 100 µM; in the assay with MDA-MB-231 breast, 31.3 µM; in the assay on UACC-62 melanoma, 27 µM. The TGI in the assay with SN12C renal was determined as 56.1 µM; with OVCAR-4 ovarian, 22.2 µM; in the assay on MDA-MB-435 it was 15.6 µM; in the assay with HCT-116 colon, 18.6 µM.

Take `O=C(Nc1ncc(Cc2ccccc2Cl)s1)c1ccc2c(c1)OCCO2`: the GI50 with SK-MEL-28 melanoma is 1.66 µM; with 786-0 renal, 0.574 µM; with SK-MEL-5 melanoma, 0.334 µM; in the assay on MCF7 breast it was 0.32 µM; in the assay on MDA-MB-231 breast, 0.38 µM; in the assay with UACC-62 melanoma, 0.569 µM. The GI50 with SN12C renal is 0.614 µM; in the assay with OVCAR-4 ovarian, 0.693 µM; in the assay on MDA-MB-435, 0.0399 µM; with HCT-116 colon, 0.335 µM. Further, the TGI with SK-MEL-28 melanoma is greater than 59 µM; in the assay with 786-0 renal, greater than 100 µM; in the assay on SK-MEL-5 melanoma it was 1.81 µM; in the assay with MCF7 breast, greater than 100 µM; in the assay with MDA-MB-231 breast it was 8.76 µM; with UACC-62 melanoma, greater than 43.3 µM. Also, the TGI in the assay on SN12C renal is greater than 94 µM; with OVCAR-4 ovarian it was greater than 68.2 µM; with MDA-MB-435, 0.22 µM; in the assay with HCT-116 colon, greater than 100 µM.

Take `OCCCCC#Cc1ccccc1C#Cc1ccccc1C(F)(F)F`: the GI50 was 13.2 µM in the assay with SK-MEL-28 melanoma; 10.3 µM in the assay on 786-0 renal; 11.6 µM in the assay on SK-MEL-5 melanoma; 10.6 µM with MCF7 breast; 2.83 µM in the assay with MDA-MB-231 breast; 11.3 µM with UACC-62 melanoma. Further, the GI50 with SN12C renal was 12.2 µM; in the assay on OVCAR-4 ovarian, 18.4 µM; with MDA-MB-435, 0.847 µM; in the assay with HCT-116 colon, 6.46 µM. Also, the TGI with SK-MEL-28 melanoma was found to be 28.5 µM; with 786-0 renal, 24.9 µM; in the assay on SK-MEL-5 melanoma it was 24.4 µM; in the assay on MCF7 breast, 31.6 µM; with MDA-MB-231 breast it was 12.4 µM; in the assay on UACC-62 melanoma it was 23.5 µM. For the same compound, the TGI was determined as 26.5 µM in the assay with SN12C renal, 36.4 µM with OVCAR-4 ovarian, 2.75 µM in the assay with MDA-MB-435 and 21.3 µM in the assay on HCT-116 colon.

In the case of `COc1c(O)ccc2c1CN1CCc3cc4c(cc3C1C2)OCO4` (stereo not given), the TGI in the assay on SK-MEL-28 melanoma is greater than 100 µM; in the assay with 786-0 renal, greater than 100 µM; in the assay with SK-MEL-5 melanoma, greater than 100 µM; with MCF7 breast, greater than 63.1 µM; in the assay on MDA-MB-231 breast, greater than 100 µM; in the assay with UACC-62 melanoma, greater than 100 µM. Also, the TGI in the assay with SN12C renal is greater than 84.4 µM; with OVCAR-4 ovarian, greater than 100 µM; in the assay with MDA-MB-435, greater than 60.9 µM; in the assay with HCT-116 colon, greater than 100 µM.

For the compound `CC(NNC(=S)N1CCCCCC1)c1ccc2ccccc2n1` (stereo not given), the GI50 is 5.18 µM with SK-MEL-28 melanoma; 3.38 µM with 786-0 renal; 1.95 µM in the assay on SK-MEL-5 melanoma; 0.338 µM with MCF7 breast; 2.03 µM with MDA-MB-231 breast; 1.69 µM in the assay with UACC-62 melanoma. In addition, the GI50 was 1.84 µM with SN12C renal, 0.0701 µM in the assay with OVCAR-4 ovarian, 2.25 µM in the assay with MDA-MB-435 and 0.688 µM with HCT-116 colon. Moreover, the TGI was 40.4 µM in the assay with SK-MEL-28 melanoma; 16.8 µM with 786-0 renal; 14.8 µM in the assay on SK-MEL-5 melanoma; 15.2 µM with MCF7 breast; 20.5 µM with MDA-MB-231 breast; 11.5 µM in the assay with UACC-62 melanoma. For the same compound, the TGI with SN12C renal was greater than 57.3 µM; in the assay with OVCAR-4 ovarian, 13.8 µM; with MDA-MB-435, 21.4 µM; with HCT-116 colon, 17.8 µM.

With `COc1ccc(/C=C\c2cc(OC)c(OC)c(OC)c2)cc1OCC(=O)Nc1nc2ccc(C(F)(F)F)cc2s1`, the GI50 with SK-MEL-28 melanoma is 3 µM; in the assay on 786-0 renal, 6.69 µM; in the assay on SK-MEL-5 melanoma it was 2.84 µM; with MCF7 breast it was 3.16 µM; with MDA-MB-231 breast, 3.38 µM; in the assay with UACC-62 melanoma, 3.9 µM. Moreover, the GI50 with SN12C renal is 4.43 µM; with OVCAR-4 ovarian it was 4.66 µM; with MDA-MB-435, 1.84 µM; with HCT-116 colon, 3.29 µM. In addition, the TGI with SK-MEL-28 melanoma was greater than 100 µM; in the assay with 786-0 renal it was greater than 100 µM; in the assay with SK-MEL-5 melanoma, 13.9 µM; with MCF7 breast it was 65.1 µM; with MDA-MB-231 breast, greater than 100 µM; in the assay on UACC-62 melanoma, greater than 100 µM. Further, the TGI with SN12C renal is greater than 100 µM; in the assay on OVCAR-4 ovarian it was greater than 100 µM; in the assay with MDA-MB-435, 5.91 µM; with HCT-116 colon, greater than 100 µM.

On to `O=c1cc(-c2ccccc2)nc2n1CCN2Cc1ccccc1`, for which the GI50 is 60 µM in the assay with SK-MEL-28 melanoma; 39.7 µM in the assay on 786-0 renal; 19.9 µM with SK-MEL-5 melanoma; 41.9 µM in the assay on MCF7 breast; 32.2 µM in the assay with MDA-MB-231 breast; 19.8 µM with UACC-62 melanoma. Further, the GI50 is 32.2 µM with SN12C renal, 74.4 µM in the assay on OVCAR-4 ovarian, 31.1 µM in the assay with MDA-MB-435 and 31.6 µM in the assay with HCT-116 colon. Besides, the TGI was greater than 100 µM in the assay on SK-MEL-28 melanoma; greater than 100 µM in the assay on 786-0 renal; 37.4 µM with SK-MEL-5 melanoma; greater than 100 µM in the assay on MCF7 breast; greater than 100 µM in the assay with MDA-MB-231 breast; 66.7 µM with UACC-62 melanoma. The TGI in the assay on SN12C renal, with OVCAR-4 ovarian, in the assay on MDA-MB-435 and in the assay with HCT-116 colon was greater than 100 µM each time.
